Results reported in ChEMBL document CHEMBL4627246, “Pyroglutamide-Based P2X7 Receptor Antagonists Targeting Inflammatory Bowel Disease” (J Med Chem, 2020).

Experiments:
Type in all cases: cell-based
[1] = system: EKVX; experiment: Cytotoxicity against human EKVX cells assessed as effect on cell growth at 10 uM incubated for 48 hrs by sulforhodamine B assay
[2] = system: HL-60(TB); experiment: Cytotoxicity against human HL-60(TB) cells assessed as effect on cell growth at 10 uM incubated for 48 hrs by sulforhodamine B assay
[3] = system: HOP-92; experiment: Cytotoxicity against human HOP92 cells assessed as effect on cell growth at 10 uM incubated for 48 hrs by sulforhodamine B assay; settings: hop-92, 48 h
[4] = system: NCI-H226; experiment: Cytotoxicity against human NCI-H226 cells assessed as effect on cell growth at 10 uM incubated for 48 hrs by sulforhodamine B assay; settings: nci-h226, 48 h
[5] = system: NCI-H322M; experiment: Cytotoxicity against human NCI-H322M cells assessed as effect on cell growth at 10 uM incubated for 48 hrs by sulforhodamine B assay
[6] = system: HCT-116; experiment: Cytotoxicity against human HCT116 cells assessed as effect on cell growth at 10 uM incubated for 48 hrs by sulforhodamine B assay; settings: hct-116, 48 h
[7] = system: HCT-15; experiment: Cytotoxicity against human HCT15 cells assessed as effect on cell growth at 10 uM incubated for 48 hrs by sulforhodamine B assay; settings: hct-15, 48 h
[8] = system: SF-268; experiment: Cytotoxicity against human SF268 cells assessed as effect on cell growth at 10 uM incubated for 48 hrs by sulforhodamine B assay; settings: sf-268, 48 h
[9] = system: U-251; experiment: Cytotoxicity against human U251 cells assessed as effect on cell growth at 10 uM incubated for 48 hrs by sulforhodamine B assay; settings: u-251, 48 h
[10] = system: Malme-3M; experiment: Cytotoxicity against human MALME-3M cells assessed as effect on cell growth at 10 uM incubated for 48 hrs by sulforhodamine B assay
[11] = system: M14; experiment: Cytotoxicity against human M14 cells assessed as effect on cell growth at 10 uM incubated for 48 hrs by sulforhodamine B assay; settings: m14, 48 h
[12] = system: SK-MEL-5; experiment: Cytotoxicity against human SK-MEL-5 cells assessed as effect on cell growth at 10 uM incubated for 48 hrs by sulforhodamine B assay; settings: sk-mel-5, 48 h
[13] = system: UACC-62; experiment: Cytotoxicity against human UACC62 cells assessed as effect on cell growth at 10 uM incubated for 48 hrs by sulforhodamine B assay; settings: uacc-62, 48 h
[14] = system: OVCAR-5; experiment: Cytotoxicity against human OVCAR5 cells assessed as effect on cell growth at 10 uM incubated for 48 hrs by sulforhodamine B assay; settings: ovcar-5, 48 h
[15] = system: 786-0; experiment: Cytotoxicity against human 786-0 cells assessed as effect on cell growth at 10 uM incubated for 48 hrs by sulforhodamine B assay; settings: 786-0, 48 h
[16] = system: PC-3; experiment: Cytotoxicity against human PC3 cells assessed as effect on cell growth at 10 uM incubated for 48 hrs by sulforhodamine B assay; settings: pc-3, 48 h
[17] = system: DU-145; experiment: Cytotoxicity against human DU145 cells assessed as effect on cell growth at 10 uM incubated for 48 hrs by sulforhodamine B assay; settings: du-145, 48 h
[18] = system: MCF7; experiment: Cytotoxicity against human MCF7 cells assessed as effect on cell growth at 10 uM incubated for 48 hrs by sulforhodamine B assay; settings: mcf7, 48 h
[19] = system: MDA-MB-231; experiment: Cytotoxicity against human MDA-MB-231 cells assessed as effect on cell growth at 10 uM incubated for 48 hrs by sulforhodamine B assay; settings: mda-mb-231, 48 h
[20] = system: MDA-MB-468; experiment: Cytotoxicity against human MDA-MB-468 cells assessed as effect on cell growth at 10 uM incubated for 48 hrs by sulforhodamine B assay; settings: mda-mb-468, 48 h

Measured: Activity

O=C(NCc1ccccc1)[C@@H]1CCC(=O)N1Cc1ccc(Cl)cc1Cl
Non-Toxic: all assays above

COc1ccc(NC(=O)[C@@H]2CCC(=O)N2)cc1OC
Non-Toxic: all assays above

O=C(NCc1ccc(Cl)cc1Cl)[C@@H]1CCC(=O)N1C(c1ccccc1)c1ccccc1
Non-Toxic: all assays above

O=C(NCc1ccc(Cl)cc1Cl)[C@@H]1CCC(=O)N1c1ccc(Cl)cc1
Non-Toxic: all assays above

COc1cc(CN/C=C2\C[C@@H](C(=O)NCc3ccc(Cl)cc3Cl)NC2=O)cc(OC)c1OC
Non-Toxic: all assays above

O=C(NCc1ccccc1Cl)[C@@H]1CCC(=O)N1Cc1ccccc1
Non-Toxic: all assays above

COc1ccc(CNC(=O)[C@@H]2CCC(=O)N2Cc2ccc(Cl)cc2Cl)c(OC)c1
Non-Toxic: all assays above

C[n+]1ccccc1C(=O)NCc1ccc(Cl)cc1Cl.[I-]
Non-Toxic: all assays above

CN1C(=O)CC[C@H]1C(=O)NCc1cccc(C(F)(F)F)c1Cl [GSK1482160]
Non-Toxic: all assays above
